This assay has as its target T1, Human PD-L1/PD-1 (Homo sapiens, UniProt Q9NZQ7).
T1 construct: TVMV protease cleavage site (C); made in house; host or cells: HEK293T cells
Description: HTRF Human PD-L1/PD-1 binding assay (PD-1-Ig/PD-L1-His). To be noted: PD-L1-His 10 nM, PD-1-Ig 20 nM; class symbol; read-out: HTRF Human PD-L1/PD-1 Binding Assay IC50 Range. In a few lines: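 Compound preincubated 15 min with PD-L1-His (10 nM final), then PD-1-Ig (20 nM final) added for 15 min in dPBS with 0.1% BSA and 0.05% Tween-20. Detection by Eu-cryptate anti-Ig (1 nM) and APC anti-His (20 nM) after 30 min; 665/620 nm HTRF ratio. Proteins expressed in HEK293T.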
Background: Time-resolved FRET reads energy transfer from a long-lived donor to a nearby acceptor.

The values below come from patent publication US10538555B2, “Macrocyclic inhibitors of the PD-1/PD-L1 and CD80(B7-1)/PD-L1 protein/protein interactions” (BRISTOL-MYERS SQUIBB COMPANY, priority 2014, dated 2020).

Where a SMILES comes first, the peptide text is derived from it. Bridges are numbered along the chain shown (N, C = ends). [ ]: non-standard residue; d: D form. Trp(βS-Me) = C[C@@H](c1c[nH]c2ccccc12)[C@H](N)C(=O)O; Phe(3,4,5-F3) = N[C@@H](Cc1cc(F)c(F)c(F)c1)C(=O)O; NMePhe(4-F) = CN[C@@H](Cc1ccc(F)cc1)C(=O)O; Hyp = O=C(O)[C@@H]1C[C@@H](O)CN1; NMeF = CN[C@@H](Cc1ccccc1)C(=O)O; dHyp = O=C(O)[C@H]1C[C@H](O)CN1; NMeNle = CCCC[C@H](NC)C(=O)O; dPip = O=C(O)[C@H]1CCCCN1; NMeA = CN[C@@H](C)C(=O)O; Dab = NCC[C@H](N)C(=O)O

T1 sequence (Q9NZQ7 with tags, fused parts or gaps): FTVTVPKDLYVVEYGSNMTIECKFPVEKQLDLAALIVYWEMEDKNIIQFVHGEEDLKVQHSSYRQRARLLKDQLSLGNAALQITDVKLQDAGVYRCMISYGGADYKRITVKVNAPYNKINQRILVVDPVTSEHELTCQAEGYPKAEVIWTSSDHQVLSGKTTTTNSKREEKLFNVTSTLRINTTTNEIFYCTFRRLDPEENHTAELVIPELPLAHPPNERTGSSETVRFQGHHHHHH

As for `CCCC[C@H]1C(=O)N(C)[C@@H](CCCC)C(=O)N[C@@H](C)C(=O)N[C@H](C(=O)NCC(N)=O)CSCC(=O)N[C@@H](Cc2ccc(O)cc2)C(=O)N(C)[C@@H](C)C(=O)N[C@@H](CC(=O)O)C(=O)N2CCC[C@H]2C(=O)N[C@@H](Cc2c[nH]cn2)C(=O)N[C@@H](CCC(N)=O)C(=O)N2C[C@H](O)C[C@H]2C(=O)N[C@@H]([C@@H](C)c2c[nH]c3ccccc23)C(=O)N[C@@H](CO)C(=O)N[C@@H](Cc2c[nH]c3ccccc23)C(=O)N1C` [Example 10553] ({CH2CO}-Y[NMeA]DPHQ[Hyp][Trp(βS-Me)]SW[NMeNle][NMeNle]ACG-NH2; thioether N-14), the IC50 lay in the range of 1 to 9.9 nM.

Consider `CCCC[C@H]1C(=O)N(C)[C@@H](CCCC)C(=O)N[C@@H](CC(C)C)C(=O)N[C@H](C(=O)NCC(N)=O)CSCC(=O)N[C@@H](Cc2ccc(O)cc2)C(=O)N(C)[C@@H](C)C(=O)N[C@@H](CC(N)=O)C(=O)N2CCC[C@H]2C(=O)N[C@@H](Cc2c[nH]cn2)C(=O)N[C@@H](CCC(N)=O)C(=O)N2C[C@H](O)C[C@H]2C(=O)N[C@@H]([C@@H](C)c2c[nH]c3ccccc23)C(=O)N[C@@H](CO)C(=O)N[C@@H](Cc2c[nH]c3ccccc23)C(=O)N1C` [Example 10554] ({CH2CO}-Y[NMeA]NPHQ[Hyp][Trp(βS-Me)]SW[NMeNle][NMeNle]LCG-NH2; thioether N-14), for which the IC50 lay within 1 to 9.9 nM.

Consider `CCCC[C@H]1C(=O)N(C)[C@@H](CCCC)C(=O)N[C@@H](CC(C)C)C(=O)N[C@H](C(=O)NCC(N)=O)CSCC(=O)N[C@@H](Cc2ccc(O)cc2)C(=O)N(C)[C@@H](C)C(=O)N[C@@H](CC(N)=O)C(=O)N2CCC[C@H]2C(=O)N[C@@H](Cc2c[nH]cn2)C(=O)N[C@@H](CCC(=O)O)C(=O)N2C[C@H](O)C[C@H]2C(=O)N[C@@H]([C@@H](C)c2c[nH]c3ccccc23)C(=O)N[C@@H](CCN)C(=O)N[C@@H](Cc2c[nH]c3ccccc23)C(=O)N1C` [Example 10555] ({CH2CO}-Y[NMeA]NPHE[Hyp][Trp(βS-Me)][Dab]W[NMeNle][NMeNle]LCG-NH2; thioether N-14), for which the IC50 was 1 to 9.9 nM.

`CCCC[C@H]1C(=O)N2C[C@@H](O)C[C@@H]2C(=O)N[C@@H](CC(=O)O)C(=O)N[C@@H](C(C)C)C(=O)N(C)[C@@H](Cc2ccccc2)C(=O)N[C@@H](CCC(=O)O)C(=O)N2CCCC[C@@H]2C(=O)N[C@@H](Cc2c[nH]c3ccccc23)C(=O)N[C@@H](Cc2ccc(O)cc2)C(=O)N[C@@H](CC(C)C)C(=O)N[C@H](C(=O)NCC(N)=O)CSCC(=O)N[C@@H](Cc2cc(F)c(F)c(F)c2)C(=O)N(C)[C@@H](Cc2ccc(F)cc2)C(=O)N1C` [Example 10556] ({CH2CO}-[Phe(3,4,5-F3)][NMePhe(4-F)][NMeNle][dHyp]DV[NMeF]E[dPip]WYLCG-NH2; thioether N-13): the IC50 fell in the range of 1 to 9.9 nM.

Regarding `CCCC[C@H]1C(=O)N2C[C@@H](O)C[C@@H]2C(=O)N[C@@H](CC(=O)O)C(=O)N[C@@H](C(C)C)C(=O)N(C)[C@@H](Cc2ccccc2)C(=O)N[C@@H](CCC(=O)O)C(=O)N2CCCC[C@@H]2C(=O)N[C@@H](Cc2c[nH]c3ccccc23)C(=O)N[C@@H](Cc2ccc(O)cc2)C(=O)N[C@@H](CO)C(=O)N[C@H](C(=O)NCC(N)=O)CSCC(=O)N[C@@H](Cc2cc(F)c(F)c(F)c2)C(=O)N(C)[C@@H](Cc2ccc(F)cc2)C(=O)N1C` [Example 10557] ({CH2CO}-[Phe(3,4,5-F3)][NMePhe(4-F)][NMeNle][dHyp]DV[NMeF]E[dPip]WYSCG-NH2; thioether N-13), the IC50 was in the range of 1 to 9.9 nM.

Turning to `CCCC[C@H]1C(=O)N2C[C@@H](O)C[C@@H]2C(=O)N[C@@H](CC(=O)O)C(=O)N[C@@H](C(C)C)C(=O)N(C)[C@@H](Cc2ccccc2)C(=O)N[C@@H](CCC(=O)O)C(=O)N2CCCC[C@@H]2C(=O)N[C@@H](Cc2c[nH]c3ccccc23)C(=O)N[C@@H](Cc2ccc(O)cc2)C(=O)N[C@@H](CC(N)=O)C(=O)N[C@H](C(=O)NCC(N)=O)CSCC(=O)N[C@@H](Cc2cc(F)c(F)c(F)c2)C(=O)N(C)[C@@H](Cc2ccc(F)cc2)C(=O)N1C` [Example 10558] ({CH2CO}-[Phe(3,4,5-F3)][NMePhe(4-F)][NMeNle][dHyp]DV[NMeF]E[dPip]WYNCG-NH2; thioether N-13), the IC50 was 1 to 9.9 nM.

In the case of `CCCC[C@H]1C(=O)N2C[C@@H](O)C[C@@H]2C(=O)N[C@@H](CC(=O)O)C(=O)N[C@@H](C(C)C)C(=O)N(C)[C@@H](Cc2ccccc2)C(=O)N[C@@H](CCC(=O)O)C(=O)N2CCCC[C@@H]2C(=O)N[C@@H](Cc2c[nH]c3ccccc23)C(=O)N[C@@H](Cc2ccc(O)cc2)C(=O)N[C@@H](CCC(N)=O)C(=O)N[C@H](C(=O)NCC(N)=O)CSCC(=O)N[C@@H](Cc2cc(F)c(F)c(F)c2)C(=O)N(C)[C@@H](Cc2ccc(F)cc2)C(=O)N1C` [Example 10559] ({CH2CO}-[Phe(3,4,5-F3)][NMePhe(4-F)][NMeNle][dHyp]DV[NMeF]E[dPip]WYQCG-NH2; thioether N-13), the IC50 is 1 to 9.9 nM.

With `CCCC[C@H]1C(=O)N2C[C@@H](O)C[C@@H]2C(=O)N[C@@H](CC(=O)O)C(=O)N[C@@H](C(C)C)C(=O)N(C)[C@@H](Cc2ccccc2)C(=O)N[C@@H](CCC(=O)O)C(=O)N2CCCC[C@@H]2C(=O)N[C@@H](Cc2c[nH]c3ccccc23)C(=O)N[C@@H](Cc2ccc(O)cc2)C(=O)N[C@@H](CCCCN)C(=O)N[C@H](C(=O)NCC(N)=O)CSCC(=O)N[C@@H](Cc2cc(F)c(F)c(F)c2)C(=O)N(C)[C@@H](Cc2ccc(F)cc2)C(=O)N1C` [Example 10560] ({CH2CO}-[Phe(3,4,5-F3)][NMePhe(4-F)][NMeNle][dHyp]DV[NMeF]E[dPip]WYKCG-NH2; thioether N-13), the IC50 fell in the range of 1 to 9.9 nM.

Turning to `CCCC[C@H]1C(=O)N2CCC[C@@H]2C(=O)N[C@@H](CC(=O)O)C(=O)N[C@@H](C(C)C)C(=O)N(C)[C@@H](Cc2ccccc2)C(=O)N[C@@H](CCC(=O)O)C(=O)N2CCCC[C@@H]2C(=O)N[C@@H](Cc2c[nH]c3ccccc23)C(=O)N[C@@H](Cc2ccc(O)cc2)C(=O)N[C@@H](CC(C)C)C(=O)N[C@H](C(=O)NCC(N)=O)CSCC(=O)N[C@@H](Cc2cc(F)c(F)c(F)c2)C(=O)N(C)[C@@H](Cc2ccc(F)cc2)C(=O)N1C` [Example 10561] ({CH2CO}-[Phe(3,4,5-F3)][NMePhe(4-F)][NMeNle][dP]DV[NMeF]E[dPip]WYLCG-NH2; thioether N-13), the IC50 was 1 to 9.9 nM.

As to `CCCC[C@H]1C(=O)N2CCC[C@@H]2C(=O)N[C@@H](CC(=O)O)C(=O)N[C@@H](C(C)C)C(=O)N(C)[C@@H](Cc2ccccc2)C(=O)N[C@@H](CCC(=O)O)C(=O)N2CCCC[C@@H]2C(=O)N[C@@H](Cc2c[nH]c3ccccc23)C(=O)N[C@@H](Cc2ccc(O)cc2)C(=O)N[C@@H](CC(N)=O)C(=O)N[C@H](C(=O)NCC(N)=O)CSCC(=O)N[C@@H](Cc2cc(F)c(F)c(F)c2)C(=O)N(C)[C@@H](Cc2ccc(F)cc2)C(=O)N1C` [Example 10562] ({CH2CO}-[Phe(3,4,5-F3)][NMePhe(4-F)][NMeNle][dP]DV[NMeF]E[dPip]WYNCG-NH2; thioether N-13), the IC50 lay within 1 to 9.9 nM.

In the case of `CCCC[C@H]1C(=O)N2CCC[C@@H]2C(=O)N[C@@H](CC(=O)O)C(=O)N[C@@H](C(C)C)C(=O)N(C)[C@@H](Cc2ccccc2)C(=O)N[C@@H](CCC(=O)O)C(=O)N2CCCC[C@@H]2C(=O)N[C@@H](Cc2c[nH]c3ccccc23)C(=O)N[C@@H](Cc2ccc(O)cc2)C(=O)N[C@@H](CCC(N)=O)C(=O)N[C@H](C(=O)NCC(N)=O)CSCC(=O)N[C@@H](Cc2cc(F)c(F)c(F)c2)C(=O)N(C)[C@@H](Cc2ccc(F)cc2)C(=O)N1C` [Example 10563] ({CH2CO}-[Phe(3,4,5-F3)][NMePhe(4-F)][NMeNle][dP]DV[NMeF]E[dPip]WYQCG-NH2; thioether N-13), the IC50 was 1 to 9.9 nM.

For `CCCC[C@H]1C(=O)N2CCC[C@@H]2C(=O)N[C@@H](CC(=O)O)C(=O)N[C@@H](C(C)C)C(=O)N(C)[C@@H](Cc2ccccc2)C(=O)N[C@@H](CCC(=O)O)C(=O)N2CCCC[C@@H]2C(=O)N[C@@H](Cc2c[nH]c3ccccc23)C(=O)N[C@@H](Cc2ccc(O)cc2)C(=O)N[C@@H](CCCCN)C(=O)N[C@H](C(=O)NCC(N)=O)CSCC(=O)N[C@@H](Cc2cc(F)c(F)c(F)c2)C(=O)N(C)[C@@H](Cc2ccc(F)cc2)C(=O)N1C` [Example 10564] ({CH2CO}-[Phe(3,4,5-F3)][NMePhe(4-F)][NMeNle][dP]DV[NMeF]E[dPip]WYKCG-NH2; thioether N-13), the IC50 fell in the range of 1 to 9.9 nM.

Take `CCCC[C@H]1C(=O)N2CCC[C@@H]2C(=O)N[C@@H](CC(=O)O)C(=O)N[C@@H](C(C)C)C(=O)N(C)[C@@H](Cc2ccccc2)C(=O)N[C@@H](CCC(=O)O)C(=O)N2CCCC[C@@H]2C(=O)N[C@@H](Cc2c[nH]c3ccccc23)C(=O)N[C@@H](Cc2ccc(O)cc2)C(=O)N[C@@H](CO)C(=O)N[C@H](C(=O)NCC(N)=O)CSCC(=O)N[C@@H](Cc2cc(F)c(F)c(F)c2)C(=O)N(C)[C@@H](Cc2ccc(F)cc2)C(=O)N1C` [Example 10565] ({CH2CO}-[Phe(3,4,5-F3)][NMePhe(4-F)][NMeNle][dP]DV[NMeF]E[dPip]WYSCG-NH2; thioether N-13): the IC50 was in the range of 1 to 9.9 nM.

For the compound `CCCC[C@H]1C(=O)N2C[C@@H](O)C[C@@H]2C(=O)N[C@@H](CC(=O)O)C(=O)N[C@@H](C(C)C)C(=O)N(C)[C@@H](Cc2ccccc2)C(=O)N[C@@H](CCC(=O)O)C(=O)N2CCCC[C@@H]2C(=O)N[C@@H](Cc2c[nH]c3ccccc23)C(=O)N[C@@H](Cc2ccc(O)cc2)C(=O)N[C@@H](CCN)C(=O)N[C@H](C(=O)NCC(N)=O)CSCC(=O)N[C@@H](Cc2cc(F)c(F)c(F)c2)C(=O)N(C)[C@@H](Cc2ccc(F)cc2)C(=O)N1C` [Example 10566] ({CH2CO}-[Phe(3,4,5-F3)][NMePhe(4-F)][NMeNle][dHyp]DV[NMeF]E[dPip]WY[Dab]CG-NH2; thioether N-13), the IC50 was in the range of 1 to 9.9 nM.
